Source: patent US10828331B2, “Cellular compositions used to restore stem cell or progenitor cell function and methods related thereto” (Emory University, priority 2012, dated 2020)

Legend:
[1] = test system: mouse neural progenitors and mouse embryonic fibroblasts; conditions: in combination with two factors (Oct4 and Klf4); cited from earlier work
diabetic MSCs = test: real-time RT-PCR of angiogenic genes in compound-treated diabetic MSCs; assay type: cell-based, rat; conditions: D-MSCs treated with epigenetic compounds for 7 days, FIG. 1
Procedure: To reprogram diabetic MSCs with epigenetic compounds, cultured D-MSCs were treated with HDAC inhibitor: Vorinostat or suberoylanilide hydroxamic acid (SAHA); DNA methyltransferase inhibitor: Decitabine (trade name Dacogen), or 5-aza-2′-deoxycytidine (5-aza); multiple histone 3 lysine 9 (H3K9) methyltransferases G9a and GLP inhibitor: BIX-01294; and GSK3β inhibitor: CHIR99021 for 7 more days. N-MSCs and D-MSCs were cultured by a standard MSC culture method. The cultured MSCs are typically reseeded at day 4 and cultured for another 4 days. To examine the expression levels of angiogenic genes, we isolated RNAs from N-, D-, or epigenetic compound treated reprogrammed D-MSCs (RD-MSCs), and performed real-time RT-PCR with specific primers of angiogenic genes.
Diabetes was induced in 8 week-old male Fischer 344 rats by intravenous injection of streptozotocin ([…]). Blood glucose levels were measured using an Accu-Check glucometer (Roche, Indianapolis, Ind.) after one week and two months. […]
Gene expression was determined by TaqMan® real-time quantitative PCR on the 7300 Sequence Detection System (Applied Biosystems) using TaqMan® PCR Master Mix (Applied Biosystems). […] Relative mRNA expression of target gene normalized to GAPDH was calculated by using the formula Relative Expression Level=2−ΔCt, where ΔCt=Ct gene of interest−Ct GAPDH. […]

| Compound | reprogramming efficiency [1] | expression of major angiogenic genes (diabetic MSCs) |
| --- | --- | --- |
| COc1cc2nc(N3CCCN(C)CC3)nc(NC3CCN(Cc4ccccc4)CC3)c2cc1OC [BIX01294] | enhanced the reprogramming efficiency |  |
| COC(=O)C1=C(C)NC(C)=C([N+](=O)[O-])C1c1ccccc1C(F)(F)F (stereo not drawn) [BayK8644, 1,4-dihydro-2,6-dimethyl-5-nitro-4-[2-(trifluoromethyl)phenyl]-3-pyridinecarboxylic acid, methyl ester] | enhanced the reprogramming efficiency |  |
| O=C(CCCCCCC(=O)Nc1ccccc1)NO [SAHA, suberoylanilide hydroxamic acid] |  | significant increased pattern in most of genes |
